US20200306295A1, “METHOD AND DEVICE FOR ANNIHILATION OF Staphylococcus aureus” (priority 2017, published 2020)

Test system: 200 kinds of cytokines
Experiment: Fold change of 200 cytokines in homogenized wound tissue
Format: in vivo, Balb/c mice
From the text: To quantify the physiological condition of the wound tissues, we measured the concentrations of 200 kinds of cytokines (Table. 1) from the supernatant of homogenized tissue solution. Cytokines are small secreted proteins released by cells and have specific effect on the interactions and communications between cells (25).
To initiate the formation of a skin wound, five groups (n=5) of eight-week old female Balb/c mice (obtained from Harlan Laboratories, Indianapolis, Ind., USA) were disinfected with ethanol (70%) and shaved on the middle of the back (approximately a one-inch by one-inch square region around the injection site) one day prior to infection as described from a reported procedure (3). To prepare the bacterial inoculum, an aliquot of overnight culture of MRSA USA300 was transferred to fresh Tryptic soy broth and shaken at 37° C. until an OD600 value of ˜1.0 was achieved. The cells were centrifuged, washed once with PBS, re-centrifuged, and then re-suspended in PBS. Mice subsequently received an intradermal injection (40 μL) containing 2.40×10^9 CFU/mL MRSA USA300.
One group of mice was left untreated (negative control). Each group of mice receiving a particular treatment regimen was housed separately in a ventilated cage with appropriate bedding, food, and water. […] Mice were treated twice daily (once every 12 hours) for three days, before they were humanely euthanized via CO2 asphyxiation 12 hours after the last dose was administered. The region around the skin wound was lightly swabbed with ethanol (70%) and excised. The tissue was subsequently homogenized in PBS. The homogenized tissue was then serially diluted in PBS before plating onto mannitol salt agar plates. Plates were incubated for at least 19 hours at 37° C. before viable MRSA CFU/mL were counted for each group. Outlier was removed based upon the Dixon Q Test.

SMILES: CC(=O)O[C@H]1C[C@@]2(C)[C@@H](C[C@@H](O)[C@H]3[C@@]4(C)CC[C@@H](O)[C@@H](C)[C@@H]4CC[C@@]32C)/C1=C(\CCC=C(C)C)C(=O)O [fusidic acid]
- fold change of MBL-2 (mean) (cytokine MBL-2, group mean, wound tissue of MRSA-infected mice): 0.0893
- fold change of Meteorin (mean) (cytokine Meteorin, group mean, wound tissue of MRSA-infected mice): 0.3361
- fold change of NOV (mean) (cytokine NOV, group mean, wound tissue of MRSA-infected mice): −0.2053
- fold change of Nope (mean) (cytokine Nope, group mean, wound tissue of MRSA-infected mice): 0.0534
- fold change of OX40 Ligand (mean) (cytokine OX40 Ligand, group mean, wound tissue of MRSA-infected mice): −0.1454
- fold change of Osteoactivin (mean) (cytokine Osteoactivin, group mean, wound tissue of MRSA-infected mice): 1.1132
- fold change of P-Cadherin (mean) (cytokine P-Cadherin, group mean, wound tissue of MRSA-infected mice): 0.5883
- fold change of Periostin (mean) (cytokine Periostin, group mean, wound tissue of MRSA-infected mice): 0.1651
- fold change of PlGF-2 (mean) (cytokine PlGF-2, group mean, wound tissue of MRSA-infected mice): −0.0798
- fold change of Progranulin (mean) (cytokine Progranulin, group mean, wound tissue of MRSA-infected mice): −0.4424
- fold change of Prostasin (mean) (cytokine Prostasin, group mean, wound tissue of MRSA-infected mice): 0.1030
- fold change of Renin 1 (mean) (cytokine Renin 1, group mean, wound tissue of MRSA-infected mice): −0.4138
- fold change of TIM-1 (mean) (cytokine TIM-1, group mean, wound tissue of MRSA-infected mice): −0.0806
- fold change of Testican 3 (mean) (cytokine Testican 3, group mean, wound tissue of MRSA-infected mice): −0.4097
- fold change of Tryptase ε (mean) (cytokine Tryptase ε, group mean, wound tissue of MRSA-infected mice): −0.0627
- share of 200 cytokines with negative fold change vs untreated (fusidic acid alone): around 50%
- fold change of 4-1BB (mean, wound tissue): −0.0924
- fold change of 6Ckine (mean, wound tissue): 0.0930
- fold change of ACE (mean, wound tissue): −0.3271
- fold change of ADAMTS1 (mean, wound tissue): 0.2350
- fold change of ALK-1 (mean, wound tissue): −0.0491
- fold change of ANG-3 (mean, wound tissue): 0.0313
- fold change of ANGPTL3 (mean, wound tissue): −0.2231
- fold change of AR (mean, wound tissue): 0.6274
- fold change of Activin A (mean, wound tissue): 0.2305
- fold change of Adiponen (mean, wound tissue): 0.0147
- fold change of Artemin (mean, wound tissue): 0.4218
- fold change of Axl (mean, wound tissue): 0.0523
- fold change of B7-1 (mean, wound tissue): −0.0561
- fold change of BAFF R (mean, wound tissue): 0.0687
- fold change of BLC (mean, wound tissue): −0.3200
- fold change of BTC (mean, wound tissue): 3.8576
- fold change of C5a (mean, wound tissue): 0.1215
- fold change of CCL6 (mean, wound tissue): −0.4027
- fold change of CCL28 (mean, wound tissue): 1.0791
- fold change of CD6 (mean, wound tissue): 0.3476
- fold change of CD27 (mean, wound tissue): 0.2818
- fold change of CD27L (mean, wound tissue): −0.0491
- fold change of CD30 (mean, wound tissue): 0.0137
- fold change of CD30L (mean, wound tissue): −0.0682
- fold change of CD36 (mean, wound tissue): 0.0674
- fold change of CD40 (mean, wound tissue): 0.3337
- fold change of CD40L (mean, wound tissue): 0.0244
- fold change of CD48 (mean, wound tissue): −0.0498
- fold change of CRP (mean, wound tissue): −0.0863
- fold change of CT-1 (mean, wound tissue): −0.0581
- fold change of CTLA4 (mean, wound tissue): 0.2149
- fold change of CXCL16 (mean, wound tissue): 0.2447
- fold change of Chemerin (mean, wound tissue): 0.1948
- fold change of Chordin (mean, wound tissue): −0.0599
- fold change of Clusterin (mean, wound tissue): 0.2455
- fold change of Cystatin C (mean, wound tissue): −0.0271
- fold change of DLL4 (mean, wound tissue): −0.0252
- fold change of Decorin (mean, wound tissue): −0.0222
- fold change of Dkk-1 (mean, wound tissue): 0.1157
- fold change of Dtk (mean, wound tissue): 0.1217
- fold change of E-Cadherin (mean, wound tissue): 0.1848
- fold change of E-selectin (mean, wound tissue): −0.2004
- fold change of EDAR (mean, wound tissue): −0.4592
- fold change of EGF (mean, wound tissue): 0.0517
- fold change of Endocan (mean, wound tissue): 0.0559
- fold change of Endoglin (mean, wound tissue): 0.4267
- fold change of Eotaxin (mean, wound tissue): 0.8019
- fold change of Eotaxin-2 (mean, wound tissue): 0.0292
- fold change of Epigen (mean, wound tissue): −0.0490
- fold change of Epiregulin (mean, wound tissue): −0.2220
- fold change of Fas (mean, wound tissue): 0.0163
- fold change of Fas L (mean, wound tissue): −0.4112
- fold change of Fcg RIIB (mean, wound tissue): 0.0602
- fold change of Fetuin A (mean, wound tissue): −0.6614
- fold change of Flt-3L (mean, wound tissue): 0.1619
- fold change of Fractalkine (mean, wound tissue): −0.2364
- fold change of G-CSF (mean, wound tissue): 0.1394
- fold change of GITR (mean, wound tissue): 0.3966
- fold change of GITR L (mean, wound tissue): 0.2327
- fold change of GM-CSF (mean, wound tissue): −0.1708
- fold change of Galectin-1 (mean, wound tissue): 0.0284
- fold change of Galectin-3 (mean, wound tissue): 0.0624
- fold change of Galectin-7 (mean, wound tissue): 0.7990
- fold change of Gas 1 (mean, wound tissue): 0.0715
- fold change of Gas 6 (mean, wound tissue): −0.0661
- fold change of Granzyme B (mean, wound tissue): 0.5603
- fold change of Gremlin (mean, wound tissue): 4.9707
- fold change of H60 (mean, wound tissue): 0.2171
- fold change of HAI-1 (mean, wound tissue): 0.2271
- fold change of HGF (mean, wound tissue): 0.2701
- fold change of HGF R (mean, wound tissue): 0.0292
- fold change of I-TAC (mean, wound tissue): 0.3744
- fold change of ICAM-1 (mean, wound tissue): 1.5512
- fold change of IFNg (mean, wound tissue): −0.0599
- fold change of IFNg R1 (mean, wound tissue): 0.0709
- fold change of IGF-1 (mean, wound tissue): −0.4445
- fold change of IGFBP-2 (mean, wound tissue): −0.0879
- fold change of IGFBP-3 (mean, wound tissue): −0.2120
- fold change of IGFBP-5 (mean, wound tissue): −0.0782
- fold change of IGFBP-6 (mean, wound tissue): −0.2897
- fold change of IL-1 R4 (mean, wound tissue): −0.0208
- fold change of IL-1a (mean, wound tissue): −0.0503
- fold change of IL-1b (mean, wound tissue): −0.2158
